Laboratory results from patent publication US6153589A, “2,3-epoxy alcohols, acids and derivatives as anti retroviral chemotherapeutic agents” (The United States of America as represented by the …, priority 1992, dated 2000).
Where two headings read alike, the source gives them in different places. Values belong to the molecule of their own block, whether it stands above or below them.

Legend:
HIV-2 protease = assay: HIV protease cleavage of nonapeptide (HPLC); assay type: biochemical; conditions: 0.5 μl of 10 μg/μl inhibitor in DMSO per 10 μl reaction; pH 6.5, room temperature; pentapeptide product relative to DMSO control; sampled at ca. 16 and 40 hr (time not given)
Description: Activity Against HIV Protease
The assay for proteolyic activity is a modified version of that previously described by Copeland et al., Gene Anal. Tech., 5:109-115 (1988). For each assay to be performed 2 microliters of protease solution (ca. 100 ng) is added to 3 μg of nonapeptide (Val-Ser-Gln-Asn-Tyr-Pro-Ile-Val-Gln-NH2) in 8 μl of 200 mM sodium phosphate, 1 M NaCl, 5% glycerol, 0.25% Nonidet-40, at pH 6.5. This affords a stock solution containing 10 μl per number of reactions. This stock is aliquoted out in 10 μl portions to which 0.5 μl of DMSO (a control is run with each set of assays to compensate for minor experimental variations) or a DMSO solution containing 10 μg/μl of an inhibitor, i.e., any one of the compounds of the present invention, is added. The reactions were incubated at room temperature and 4 μl portions were removed at ca. 16 and 40 hr. intervals. HPLC analysis was performed on a 4.6×250 mm Lichrosorb RP-18 column eluted with a gradient of 0-40% acetonitrile in water (containing 0.05% TFA) over 30 min monitoring absorbance at 206 nm. Progress of the enzymatic cleavage was followed by monitoring the appearance of the pentapeptide (Val-Ser-Gln-Asn-Tyr-OH) cleavage product. The activity is expressed as the amount of the pentapeptide (Val-Ser-Gln-Asn-Tyr-OH) observed relative to the control reaction for that set of assays.
Inhibition of HIV-2 protease

porcine Renin = biological target: T1, porcine Renin (Sus scrofa, UniProt A0A287APG1); assay: Porcine Renin cleavage of porcine tetradecapeptide (HPLC); assay type: biochemical; conditions: 0.5 μl of 50 μg/μl inhibitor in DMSO in 50 μl; pH 6.00, room temperature, 70 min; relative to uninhibited control
T1 construct: purchased Sigma
T1 sequence (A0A287APG1 24-407): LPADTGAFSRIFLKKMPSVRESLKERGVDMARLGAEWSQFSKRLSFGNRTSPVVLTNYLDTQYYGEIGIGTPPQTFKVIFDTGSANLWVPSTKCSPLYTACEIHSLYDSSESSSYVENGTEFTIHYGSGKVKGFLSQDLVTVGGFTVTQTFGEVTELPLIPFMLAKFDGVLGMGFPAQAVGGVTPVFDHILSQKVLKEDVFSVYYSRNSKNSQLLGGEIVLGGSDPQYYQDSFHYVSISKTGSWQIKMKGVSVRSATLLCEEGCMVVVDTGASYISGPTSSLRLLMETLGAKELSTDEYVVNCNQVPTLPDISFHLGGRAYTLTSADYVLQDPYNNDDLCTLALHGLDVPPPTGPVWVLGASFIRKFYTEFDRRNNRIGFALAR
Text: Renin Activity: Porcine Renin Cleavage of Porcine Tetradecapeptide
Proteolytic enzymes are ubiquitous in many living systems. Renin is an asparxyl protease found in mammals which is responsible for the regulation of blood pressure. Structural and functional similarities between Renin and retroviral proteases have been previously noted (Pearl, L. H., Taylor, W. R., (1987) Nature, 329, 351-354). Consequently, successful therapeutic inhibition of retroviral proteases depends on the ability of the inhibitor to inhibit the retroviral enzyme while having a greatly diminished effect on normally occurring enzymes like Renin. The failure to inhibit the desired enzyme selectively may have an adverse effect on normal biochemical functions. The similarity of Renin to retroviral proteases and its viral normal bodily function makes it an attractive system in which to examine inhibitory selectivity.
Renin activity was determined by a method similar to that described above for the HIV protease. A solution containing 0.37 m unit (0.5 μl of stock solution containing 0.75 m unit/μl) of porcine Renin (Sigma) was added to 5 μg of porcine angiotensinogen in 50 μl of 0.1 M citrate-phosphate buffer (pH 6.00) containing 0.25% NP-40. A DMSO solution containing the inhibitor (0.5 μl of a 50 μg/μl solution) was added and the reaction was allowed to incubate at room temperature for 70 min. The entire mixture was analyzed by HPLC chromatographic analysis was perforemd on a 4.6×250 mm Lichrosorb RP-18 column eluting with a gradient of 0-50% acetonitrile in 0.02 M KH2 Po4 (pH 4.7) over 30 min monitoring absorbance at 206 nm. Appearance of both the tetrapeptide and the decapeptide products may be monitored under these conditions. Enzyme activity is expressed as the amount of tetrapeptide produced relative to an uninhibited control, and are summarized in Table 3 below.

HIV1 IIIb = assay: microbe, parasite or virus in culture; assay type: cell-based; conditions: Human immunodeficiency virus 1, IIIB; for viability at 10 µg/mL: 10 ug/ml; for viability at 23 µg/mL: 23 ug/ml; for viability at 11.5 µg/mL: 11.5 ug/ml; for viability at 31.9 µg/mL: 31.9 ug/ml; for viability at 3.9 µg/mL: 3.9 ug/ml; for viability at 1 µg/mL: 1 ug/ml; for viability at 6.3 µg/mL: 6.3 ug/ml; for viability at 31.5 µg/mL: 31.5 ug/ml; for viability at 24.6 µg/mL: 24.6 ug/ml; for viability at 27.2 µg/mL: 27.2 ug/ml
How it was run: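 Human host cells infected with HIV1 IIIb (virus-producing H9 cells or cell-free virus) and incubated seven days with compound. Viable cells measured by XTT formazan absorbance; response expressed as % of uninfected controls against virus kill %. Some cultures redosed after 3 days.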

[1] = 168 h, read-out: Antiviral Effect (viable cells as % of uninfected controls), run 15*, source V (cell free virus), virus kill 25.0%, culture redosed with compound after 3 days

Structure (SMILES): O=[N+]([O-])c1ccc(OCC2CO2)cc1 (centres unmarked) [1,2-Epoxy-3-(p-nitrophenoxy)propane, reference compound]
Percent Control Cleavage of Nonapeptide HIV-1 Cleavage Site Fragment (HIV-2 protease): 18%
Percent control (tetrapeptide produced) (porcine Renin): 106%

Structure (SMILES): CCCCCCCCC[C@H]1O[C@H]1CO [Example 11, (2S-cis)-3-Nonyloxirane Methanol]
viability at 10 µg/mL (HIV1 IIIb; 168 h, read-out: Antiviral Effect (viable cells as % of uninfected controls), run 8, source V (cell free virus), virus kill 25.0%): 110%
viability at 23 µg/mL (HIV1 IIIb; 168 h, read-out: Antiviral Effect (viable cells as % of uninfected controls), run 9, source V (cell free virus), virus kill 23.0%): 30%
viability at 11.5 µg/mL (HIV1 IIIb; 168 h, read-out: Antiviral Effect (viable cells as % of uninfected controls), run 10, source V (cell free virus), virus kill 49.0%): 68.5%
viability at 31.9 µg/mL (HIV1 IIIb; 168 h, read-out: Antiviral Effect (viable cells as % of uninfected controls), run 11, source V (cell free virus), virus kill 53.0%): 65.1%
viability at 11.5 µg/mL (HIV1 IIIb; 168 h, read-out: Antiviral Effect (viable cells as % of uninfected controls), run 12, source V (cell free virus), virus kill 30.0%): 80.4%
viability at 31.9 µg/mL (HIV1 IIIb; 168 h, read-out: Antiviral Effect (viable cells as % of uninfected controls), run 13, source V (cell free virus), virus kill 22.0%): 82.6%
viability at 3.9 µg/mL (HIV1 IIIb; 168 h, read-out: Antiviral Effect (viable cells as % of uninfected controls), run 14, source V (cell free virus), virus kill 20.0%): 21.5%
viability at 3.9 µg/mL (HIV1 IIIb; [1]): 32.4%
viability at 10 µg/mL (HIV1 IIIb; H9, 168 h, read-out: Antiviral Effect (viable cells as % of uninfected controls), run 1, source C (virus producing H9 cells), virus kill 6.0%): 60.2%
viability at 1 µg/mL (HIV1 IIIb; H9, 168 h, read-out: Antiviral Effect (viable cells as % of uninfected controls), run 2, source C (virus producing H9 cells), virus kill 25.0%): 37.5%
viability at 23 µg/mL (HIV1 IIIb; H9, 168 h, read-out: Antiviral Effect (viable cells as % of uninfected controls), run 3, source C (virus producing H9 cells), virus kill 14.0%): 19.9%
viability at 11.5 µg/mL (HIV1 IIIb; H9, 168 h, read-out: Antiviral Effect (viable cells as % of uninfected controls), run 4, source C (virus producing H9 cells), virus kill 12.5%): 18.1%
viability at 31.9 µg/mL (HIV1 IIIb; H9, 168 h, read-out: Antiviral Effect (viable cells as % of uninfected controls), run 5, source C (virus producing H9 cells), virus kill 13.0%): 23.9%
viability at 11.5 µg/mL (HIV1 IIIb; H9, 168 h, read-out: Antiviral Effect (viable cells as % of uninfected controls), run 6, source C (virus producing H9 cells), virus kill 9.0%): 12.3%
viability at 31.9 µg/mL (HIV1 IIIb; H9, 168 h, read-out: Antiviral Effect (viable cells as % of uninfected controls), run 7, source C (virus producing H9 cells), virus kill 11.0%): 13%
Percent Control Cleavage of Nonapeptide HIV-1 Cleavage Site Fragment (HIV-2 protease): 85%
Percent control (tetrapeptide produced) (porcine Renin): 106%

Percent control (tetrapeptide produced) (porcine Renin): 86%
Structure (SMILES): CCCCCCCCC[C@H]1O[C@H]1C(=O)O [Example 21, (2R-cis)-3-Nonyloxiranecarboxylic Acid]
viability at 10 µg/mL (HIV1 IIIb; 168 h, read-out: Antiviral Effect (viable cells as % of uninfected controls), run 8, source V (cell free virus), virus kill 23.0%): 94%
viability at 6.3 µg/mL (HIV1 IIIb; 168 h, read-out: Antiviral Effect (viable cells as % of uninfected controls), run 9, source V (cell free virus), virus kill 19.0%): 25.7%
viability at 31.5 µg/mL (HIV1 IIIb; 168 h, read-out: Antiviral Effect (viable cells as % of uninfected controls), run 10, source V (cell free virus), virus kill 53.0%): 75.3%
viability at 24.6 µg/mL (HIV1 IIIb; 168 h, read-out: Antiviral Effect (viable cells as % of uninfected controls), run 11, source V (cell free virus), virus kill 57.0%): 64.3%
viability at 31.5 µg/mL (HIV1 IIIb; 168 h, read-out: Antiviral Effect (viable cells as % of uninfected controls), run 12, source V (cell free virus), virus kill 27.0%): 62%
viability at 24.6 µg/mL (HIV1 IIIb; 168 h, read-out: Antiviral Effect (viable cells as % of uninfected controls), run 13, source V (cell free virus), virus kill 40.0%): 88%
viability at 27.2 µg/mL (HIV1 IIIb; 168 h, read-out: Antiviral Effect (viable cells as % of uninfected controls), run 14, source V (cell free virus), virus kill 18.0%): 25.7%
viability at 27.2 µg/mL (HIV1 IIIb; [1]): 28.1%
viability at 1 µg/mL (HIV1 IIIb; H9, 168 h, read-out: Antiviral Effect (viable cells as % of uninfected controls), run 1, source C (virus producing H9 cells), virus kill 9.0%): 18.9%
viability at 10 µg/mL (HIV1 IIIb; H9, 168 h, read-out: Antiviral Effect (viable cells as % of uninfected controls), run 2, source C (virus producing H9 cells), virus kill 22.0%): 27.3%
viability at 6.3 µg/mL (HIV1 IIIb; H9, 168 h, read-out: Antiviral Effect (viable cells as % of uninfected controls), run 3, source C (virus producing H9 cells), virus kill 12.0%): 16.6%
viability at 31.5 µg/mL (HIV1 IIIb; H9, 168 h, read-out: Antiviral Effect (viable cells as % of uninfected controls), run 4, source C (virus producing H9 cells), virus kill 14.0%): 19.6%
viability at 24.6 µg/mL (HIV1 IIIb; H9, 168 h, read-out: Antiviral Effect (viable cells as % of uninfected controls), run 5, source C (virus producing H9 cells), virus kill 14.0%): 21.6%
viability at 31.5 µg/mL (HIV1 IIIb; H9, 168 h, read-out: Antiviral Effect (viable cells as % of uninfected controls), run 6, source C (virus producing H9 cells), virus kill 12.0%): 10.7%
viability at 24.6 µg/mL (HIV1 IIIb; H9, 168 h, read-out: Antiviral Effect (viable cells as % of uninfected controls), run 7, source C (virus producing H9 cells), virus kill 18.0%): 13%

Structure (SMILES): CCCCCCCCC[C@@H]1O[C@H]1C(=O)O [Example 35, (2R-trans)-3-Nonyloxiranecarboxylic Acid]
Percent Control Cleavage of Nonapeptide HIV-1 Cleavage Site Fragment (HIV-2 protease): 77%
Percent control (tetrapeptide produced) (porcine Renin): 72%

Structure (SMILES): CCCCCCCCC[C@H]1O[C@@H]1C(=O)O [Example 36, (2S-trans)-3-Nonyloxiranecarboxylic acid]
Percent Control Cleavage of Nonapeptide HIV-1 Cleavage Site Fragment (HIV-2 protease): 12%
Percent control (tetrapeptide produced) (porcine Renin): 12%

Structure (SMILES): CCCCCCCCCCC[C@H]1O[C@@H]1C(=O)O [Example 40, (2S-trans)-3-Undecyloxiranecarboxylic Acid]
Percent Control Cleavage of Nonapeptide HIV-1 Cleavage Site Fragment (HIV-2 protease): 93%
Percent control (tetrapeptide produced) (porcine Renin): 71%
